# Measured values taken from publication PMC7582905, “Effect of Disulfide Cyclization of Ultrashort Cationic Lipopeptides on Antimicrobial Activity and Cytotoxicity” (International Journal of Molecular Sciences, 2020).
# Read-outs that look alike come from different tables or passages of the source. Where a SMILES comes first, the peptide text is derived from it. Bridges are numbered along the chain shown (N, C = ends). The star is where a group is joined. Palmitoyl = CCCCCCCCCCCCCCCC(=O)*
# Key:
# Assay type in all cases: cell-based
# [1] = tested on: human cervical adenocarcinoma cell line (HeLa S3); experiment: MTT assay; conditions: 24 h incubation at 37 °C, six replicates per concentration, repeated at least twice
# Method: (§1) To assess the cytotoxicity of the test lipopeptides (IC50), the classic MTT assay on 96-well polystyrene plates was performed for human keratinocytes (HaCaT) and human cervical adenocarcinoma cell line (HeLa S3) acquired from the ATCC. The assay utilizes colorimetric determination of the cell metabolic activity and the color intensity reflects the number of live cells that can be measured spectrophotometrically. The cell line was cultured in a Dulbecco’s modified Eagle Medium (Invitrogen) supplemented with 10% fetal bovine serum (v/v), 100 units/mL of penicillin, 100 μg/mL of streptomycin, and 2 mM l-glutamine and was stored at 37 °C in a humidified 5% CO2 incubator. Briefly, a day after plating of 500 cells per well, a series of concentrations (0.1–200 μg/mL) of the test compounds were applied. DMSO was added to the control cells at a final concentration of 1.0% (v/v), which was related to the maximal concentration of the solvent compounds used in the experiment. After 24 h of incubation with the lipopeptides at 37 °C in a humidified 5% CO2 incubator, a medium containing 1 mg/mL of MTT (3-(4,5-dimethylthiazol-2-yl)-2,5-diphenyltetrazolium bromide) was added to the wells up to a final concentration of 0.5 mg/mL. Subsequently, the plates were incubated at 37 °C for 4 h. Then, the medium was removed by suction, and the formazan product was solubilized with DMSO. The background absorbance at 630 nm was subtracted from that at 570 nm for each well (Epoch, BioTek Instruments, Winooski, VT, USA). Six replicates were conducted for each concentration. All experiments were repeated at least twice and the resulting IC50 values were calculated with a GraFit 7 software (v. 7.0, Erithacus, Berkley, CA, USA).
# [2] = tested on: human keratinocytes (HaCaT); experiment: MTT assay; conditions: 24 h incubation at 37 °C, six replicates per concentration, repeated at least twice
# Method: as §1
# [3] = tested on: Candida lipolytica PCM 2680-FY
# Method: (§2) The Staphylococcus aureus ATCC 25923, Staphylococcus epidermidis ATCC 14990, Escherichia coli ATCC 25922, Pseudomonas aeruginosa ATCC 9027, Candida albicans ATCC 10231, Candida glabrata ATCC 15126, Candida lipolytica PCM 2680-FY, and Candida tropicalis PCM 2709-FY strains were acquired from the Polish Collection of Microorganisms (PCM, Polish Academy of Sciences, Wrocław, Poland) and from the American Type Culture Collection (ATCC). All the strains were stored at −80 °C in Roti-Store cryo vials and before the tests were transferred into fresh Mueller–Hinton broth (MHB, Biocorp, Warsaw, Poland) for bacteria or RPMI-1640 (Sigma-Aldrich, Steinheim, Germany) for fungi and incubated for 24 h at 37 °C. Then, the cultures were seeded on Mueller–Hinton agar (BioMaxima, Lublin, Poland) or Sabouraud dextrose agar (SDA, BioMaxima, Lublin, Poland) plates, respectively, and incubated as just mentioned. These agar cultures were used for further microbiological assays. Cell densities for all assays were adjusted spectrophotometrically (Multiskan GO Microplate Spectrophotometer, Thermo Fisher Scientific, Vantaa, Finland) at 600 and 660 nm for bacteria and fungi, respectively.
# (§3) MBECs were determined on 96-well polystyrene flat-bottom plates. For this purpose, 24 h cultures of microorganisms were diluted to obtain final density 5.0 × 10^5 CFU/mL and 2.0 × 10^5 CFU/mL of bacteria and fungi, respectively. Briefly, 100 µL of cell suspension was added into the test plates. After 24 h of incubation at 37 °C the wells were rinsed three times with a phosphate buffer saline (PBS, pH 7.4) to remove non-adherent cells. Subsequently, 100 μL of the test compounds in concentration range (0.5–256 μg/mL) were added to each well. After 24 h of incubation at 37 °C, 20 μL of a cell viability reagent was added (resazurin, 4 g/L; Sigma Aldrich, St. Louis, MO, USA). The MBEC was read after 1 h. The determined values were recorded as the lowest concentration at which the reduction of resazurin (from blue to pink) was lower or equal to 10 ± 0.5% as compared to the positive (100%) and negative (0%) controls. The reduction was monitored by measuring absorbance at 570 nm (reduced) and 600 nm (oxidized) using a microplate spectrophotometer (Multiskan GO Microplate Spectrophotometer, Thermo Fisher Scientific, Vantaa, Finland). All experiments were conducted in triplicate.
# [4] = tested on: Pseudomonas aeruginosa ATCC 9027
# Method: as §2, §3
# [5] = tested on: Staphylococcus epidermidis ATCC 14990
# Method: as §2, §3
# [6] = tested on: Candida albicans ATCC 10231
# Method: as §2, §3
# [7] = tested on: Candida tropicalis PCM 2709-FY
# Method: as §2, §3
# [8] = tested on: Candida glabrata ATCC 15126
# Method: as §2, §3
# [9] = tested on: Escherichia coli ATCC 25922
# Method: as §2, §3
# [10] = tested on: Candida lipolytica PCM 2680-FY; conditions: 24 h
# Method: as §2
# (§4) The MICs were determined by broth microdilution method according to the Clinical and Laboratory Standard Institute guidelines For this purpose, initial inoculums of bacteria (5 × 10^5 CFU/mL) in MHB and yeasts (2 × 10^3 CFU/mL) in RPMI-1640 with 2% D-glucose were exposed to the ranging concentration of lipopeptides (0.5–256 μg/mL) and incubated at 37 °C for 18 h and 24 h, respectively. The experiments were conducted on 96-well microtiter polystyrene plates. The growth was assessed visually after incubation and the MIC was assumed as the lowest peptide concentration at which a noticeable growth of microorganisms was inhibited. All experiments were conducted in triplicate.
# [11] = tested on: Pseudomonas aeruginosa ATCC 9027; remark: listed apart in the source
# Method: as §2, §4
# [12] = tested on: Staphylococcus epidermidis ATCC 14990; remark: listed apart in the source
# Method: as §2, §4
# [13] = tested on: Candida albicans ATCC 10231; remark: listed apart in the source
# Method: as §2, §4
# [14] = tested on: Candida tropicalis PCM 2709-FY; conditions: 24 h
# Method: as §2, §4
# [15] = tested on: Candida glabrata ATCC 15126; remark: listed apart in the source
# Method: as §2, §4
# [16] = tested on: Escherichia coli ATCC 25922; remark: listed apart in the source
# Method: as §2, §4
# [17] = 24 h biofilm on polystyrene plates, 24 h exposure at 37 °C, resazurin, triplicate
# [18] = broth microdilution (CLSI), RPMI-1640 with 2% D-glucose, 2 × 10^3 CFU/mL, 37 °C, visual, triplicate
# [19] = broth microdilution (CLSI), MHB, 5 × 10^5 CFU/mL, 37 °C, 18 h, visual, triplicate
# [20] = broth microdilution (CLSI), RPMI-1640 with 2% D-glucose, 2 × 10^3 CFU/mL, 37 °C, 24 h, visual, triplicate
smiles,measurement,setting,value
"CCCCCCCCCCCCCCCC(=O)N[C@H]1CSSC[C@@H](C(N)=O)NC(=O)[C@H](CCCCN)NC(=O)[C@H](CCCCN)NC(=O)[C@H](CCCCN)NC1=O [C1, C16-CKKKC-NH2] (Palmitoyl-CKKKC-NH2; disulfide 1-5)",HeLa IC50,[1],25.5 ± 2.9 µg/mL
same,HaCaT IC50,[2],23.6 ± 6.0 µg/mL
same,MBEC C. lipolytica,[3]; 24 h,64 µg/mL
same,MBEC P. aeruginosa,"[4]; ATCC 9027, 24 h",256 µg/mL
same,MBEC S. epidermidis,"[5]; ATCC 14990, 24 h",32 µg/mL
same,MBEC C. albicans,"[6]; ATCC 10231, 24 h",256 µg/mL
same,MBEC C. tropicalis,"[7]; PCM 2709-FY, 24 h",128 µg/mL
same,MBEC C. glabrata,"[8]; ATCC 15126, 24 h",256 µg/mL
same,MBEC E. coli,"[9]; ATCC 25922, 24 h",256 µg/mL
same,MIC C. lipolytica,[10],4 µg/mL
same,MIC P. aeruginosa,"[11]; ATCC 9027, 18 h",256 µg/mL
same,MIC S. epidermidis,"[12]; ATCC 14990, 18 h",4 µg/mL
same,MIC C. albicans,"[13]; ATCC 10231, 24 h",8 µg/mL
same,MIC C. tropicalis,[14]; PCM 2709-FY,4 µg/mL
same,MIC C. glabrata,"[15]; ATCC 15126, 24 h",4 µg/mL
same,MIC E. coli,"[16]; ATCC 25922, 18 h",16 µg/mL
"CCCCCCCCCCCCCCCC(=O)N[C@H]1CSSC[C@@H](C(N)=O)NC(=O)[C@H](CCCCN)NC(=O)[C@H](CCCCN)NC(=O)[C@H](CCCCN)NC(=O)[C@H](CCCCN)NC1=O [C2, C16-CKKKKC-NH2] (Palmitoyl-CKKKKC-NH2; disulfide 1-6)",HeLa IC50,[1],17.9 ± 2.1 µg/mL
same,HaCaT IC50,[2],26.9 ± 1.9 µg/mL
same,MBEC C. lipolytica,[3]; [17],16 µg/mL
same,MBEC P. aeruginosa,[4]; [17],> 256 µg/mL
same,MBEC S. epidermidis,[5]; [17],32 µg/mL
same,MBEC C. albicans,[6]; [17],64 µg/mL
same,MBEC C. tropicalis,[7]; [17],32 µg/mL
same,MBEC C. glabrata,[8]; [17],64 µg/mL
same,MBEC E. coli,[9]; [17],64 µg/mL
same,MIC C. lipolytica,[10]; [18],2 µg/mL
same,MIC P. aeruginosa,[11]; [19],32 µg/mL
same,MIC S. epidermidis,[12]; [19],8 µg/mL
same,MIC C. albicans,[13]; [20],4 µg/mL
same,MIC C. tropicalis,[14]; [18],2 µg/mL
same,MIC C. glabrata,[15]; [20],4 µg/mL
same,MIC E. coli,[16]; [19],64 µg/mL
